Laboratory results published in patent US11547694B2, “CXCR4/CXCR7 blockade and treatment of human papilloma virus-associated disease” (priority 2017, dated 2023).

Tests used:
TC-1 tumor cells = type: in vivo; conditions: C57BL/6 mice with s.c. TC-1 tumors
Description: Methods. C57BL/6 mice were inoculated with 1×10^5 TC-1 tumor cells subcutaneously into the right flank. When tumors reached approximately 60-70 mm^3 in size, various treatments were initiated. The treatment groups (N=5) consisted of no treatment, administration of an isotype control IgG antibody (clone 2A3, BioXcell), anti-PD-1 monotherapy (clone 29F.1A12, BioXcell), AMD3100 monotherapy (catalog AB120718, AbCam), combination of AMD3100 and anti-PD-1 and combination of AMD3100, anti-PD-1, and an HPV vaccine (See, FIGS. 1, 2, 3, and 4).
The treatment regimen consisted of administration of 0.5 mg/mouse of anti-PD-1 antibody (clone 29F.1A12, BioXcell) or isotype control antibody (clone 2A3, BioXcell) every 5 days for a total of 3 treatments. Prior to each dose of antibody, the mice were treated with 3 mg/kg of AMD3100 (catalog AB120718, AbCam). In addition, a subset of mice were treated with a 1:1 ratio of 20 mcg of HPV E7 peptide vaccine and 20 mcg of poly I:C adjuvant in a total volume of 20 μl, which was administered intratumorally. The tumors were measured twice a week with calipers. When the tumor measured over 2 centimeters in any one direction, the animal was sacrificed according to IACUC policy.

[1] = tested on: ovarian preclinical cancer model
CXCR4 = CXCR4 (Homo sapiens, UniProt P61073); conditions: cited from earlier work
mature leukocytes = conditions: administration of AMD3100; cited from earlier work
[2] = 0.01-0.02 mg/kg subcutaneously twice daily for 6 months; phase I clinical trial (Blood 2014; 123(15):2308-16); cited from earlier work

Sequence of CXCR4 (P61073 whole entry): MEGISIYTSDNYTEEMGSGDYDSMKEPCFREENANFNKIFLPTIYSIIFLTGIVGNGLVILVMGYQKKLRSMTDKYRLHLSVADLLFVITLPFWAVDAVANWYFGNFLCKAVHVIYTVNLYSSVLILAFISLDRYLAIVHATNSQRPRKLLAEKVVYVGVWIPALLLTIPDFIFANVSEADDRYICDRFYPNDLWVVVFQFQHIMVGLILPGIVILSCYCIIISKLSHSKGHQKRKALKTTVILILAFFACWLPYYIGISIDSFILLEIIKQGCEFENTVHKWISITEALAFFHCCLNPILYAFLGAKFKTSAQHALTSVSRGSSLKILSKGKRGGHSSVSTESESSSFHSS

**Q.** Which results are given for `c1cc(CN2CCCNCCNCCCNCC2)ccc1CN1CCCNCCNCCCNCC1` [AMD3100]?
**A.** anti-tumor effect (tumor growth, FIG. 1, FIG. 3) (TC-1 tumor cells; AMD3100 3 mg/kg before each antibody dose, anti-PD-1 0.5 mg/mouse every 5 days x3, HPV E7 peptide vaccine intratumorally, caliper tumor volume): enhanced anti-tumor effect; survival (FIG. 2, FIG. 4) (TC-1 tumor cells; same regimen, Log-rank test): prolonged survival; CD8+ T cells [1]: increase; Treg infiltration [1]: decrease; anti-tumor effect [1]: enhanced anti-tumor effect; antagonism of CXCR4 (CXCR4): highly specific antagonist of CXCR4; mobilization of leukocytes into the blood (mature leukocytes): rapidly mobilize all major subsets of mature leukocytes into the blood; safety of long-term, low-dose treatment [2]: demonstrated the safety
